Assay results from BigSolDB 2.1.

CCOC(=O)CCC(=O)O[C@H]1[C@H](O[C@@H]2[C@@H](C)[C@H](O[C@H]3C[C@@](C)(OC)[C@@H](O)[C@H](C)O3)[C@@H](C)C(=O)O[C@H](CC)[C@@](C)(O)[C@H](O)[C@@H](C)C(=O)[C@H](C)C[C@@]2(C)O)O[C@H](C)C[C@@H]1N(C)C
solubility (mole fraction) (in THF, 288.15 K): 0.036 | solubility (mole fraction) (in THF, 293.15 K): 0.0416 | solubility (mole fraction) (in THF, 298.15 K): 0.0491 | solubility (mole fraction) (in THF, 303.15 K): 0.058 | solubility (mole fraction) (in THF, 308.15 K): 0.0684 | solubility (mole fraction) (in THF, 313.15 K): 0.081 | solubility (mole fraction) (in THF, 318.15 K): 0.0977 | solubility (mole fraction) (in THF, 323.15 K): 0.114 | solubility (mole fraction) (in acetone, 288.15 K): 0.0138 | solubility (mole fraction) (in acetone, 293.15 K): 0.0175 | solubility (mole fraction) (in acetone, 298.15 K): 0.0219 | solubility (mole fraction) (in acetone, 303.15 K): 0.0268 | solubility (mole fraction) (in acetone, 308.15 K): 0.0347 | solubility (mole fraction) (in acetone, 313.15 K): 0.0425 | solubility (mole fraction) (in acetone, 318.15 K): 0.0527 | solubility (mole fraction) (in acetone, 323.15 K): 0.0614 | solubility (mole fraction) (in acetonitrile, 288.15 K): 0.0019 | solubility (mole fraction) (in acetonitrile, 293.15 K): 0.00252 | solubility (mole fraction) (in acetonitrile, 298.15 K): 0.00332 | solubility (mole fraction) (in acetonitrile, 303.15 K): 0.00397 | solubility (mole fraction) (in acetonitrile, 308.15 K): 0.00504 | solubility (mole fraction) (in acetonitrile, 313.15 K): 0.00703 | solubility (mole fraction) (in acetonitrile, 318.15 K): 0.00906 | solubility (mole fraction) (in acetonitrile, 323.15 K): 0.0114 | solubility (mole fraction) (in ethanol, 288.15 K): 0.00762 | solubility (mole fraction) (in ethanol, 293.15 K): 0.00966 | solubility (mole fraction) (in ethanol, 298.15 K): 0.0128 | solubility (mole fraction) (in ethanol, 303.15 K): 0.017 | solubility (mole fraction) (in ethanol, 308.15 K): 0.0242 | solubility (mole fraction) (in ethanol, 313.15 K): 0.0323 | solubility (mole fraction) (in ethanol, 318.15 K): 0.0414 | solubility (mole fraction) (in ethanol, 323.15 K): 0.0518 | solubility (mole fraction) (in isopropanol, 288.15 K): 0.00814 | solubility (mole fraction) (in isopropanol, 293.15 K): 0.0106 | solubility (mole fraction) (in isopropanol, 298.15 K): 0.0141 | solubility (mole fraction) (in isopropanol, 303.15 K): 0.0187 | solubility (mole fraction) (in isopropanol, 308.15 K): 0.0249 | solubility (mole fraction) (in isopropanol, 313.15 K): 0.0342 | solubility (mole fraction) (in isopropanol, 318.15 K): 0.0459 | solubility (mole fraction) (in isopropanol, 323.15 K): 0.0556 | solubility (mole fraction) (in n-hexane, 288.15 K): 9.26e-05 | solubility (mole fraction) (in n-hexane, 293.15 K): 0.000129 | solubility (mole fraction) (in n-hexane, 298.15 K): 0.000158 | solubility (mole fraction) (in n-hexane, 303.15 K): 0.000213 | solubility (mole fraction) (in n-hexane, 308.15 K): 0.000286 | solubility (mole fraction) (in n-hexane, 313.15 K): 0.000371 | solubility (mole fraction) (in n-hexane, 318.15 K): 0.000562 | solubility (mole fraction) (in n-hexane, 323.15 K): 0.000698
